We go through two compounds from patent US10494365B2, “Small molecule inhibitor of 3-phosphoglycerate dehydrogenase and uses thereof” (The Scripps Research Institute, priority 2015, dated 2019).

“Also recorded” adds a separate entry of the source.

Experiment [1] has as its target T1, PHGDH (Homo sapiens, UniProt O43175).
T1 sequence (O43175 1-533): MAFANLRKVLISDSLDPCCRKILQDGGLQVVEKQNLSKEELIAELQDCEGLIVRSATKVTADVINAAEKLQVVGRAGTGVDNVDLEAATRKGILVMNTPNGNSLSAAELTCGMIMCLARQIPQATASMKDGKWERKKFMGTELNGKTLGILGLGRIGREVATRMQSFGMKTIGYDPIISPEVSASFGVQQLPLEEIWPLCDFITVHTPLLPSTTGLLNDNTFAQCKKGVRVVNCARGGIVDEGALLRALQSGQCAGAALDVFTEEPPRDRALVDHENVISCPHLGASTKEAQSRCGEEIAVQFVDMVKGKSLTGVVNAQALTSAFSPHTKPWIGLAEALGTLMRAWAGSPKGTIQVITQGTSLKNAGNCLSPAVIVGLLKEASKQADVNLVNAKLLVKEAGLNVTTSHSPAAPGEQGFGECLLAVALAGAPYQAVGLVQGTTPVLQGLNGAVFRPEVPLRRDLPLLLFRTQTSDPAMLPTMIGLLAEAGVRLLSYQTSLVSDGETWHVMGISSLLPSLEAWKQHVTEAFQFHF
As to conditions: BS3 cross-linking, SDS-PAGE.
From the text: Samples were run on SDS-PAGE and colloidal coomassie stained (Bio-Rad).

Experiment [2] concerns lactate dehydrogenase (LDH). The experiment can be described thus: LDH assay (kit, recombinant enzyme). It is filed as biochemical. The following applies: at concentrations consistent with the PHGDH IC50 / drug concentrations used in cells. As for the experimental part: (§1) Enzyme activities were assayed using kits (LDH: Sigma MAK06; MDH1: Sigma MAK196-1KT) according to the manufacturer's instructions with commercially available recombinant enzyme (LDH: Sigma 59747; MDH1: Sigma SRP6103).

The next experiment concerns MCF7 cells. The experiment can be described thus: Proliferation assay, MCF7. It is filed as cell-based.
For another experiment, the system named is cells. The experiment can be described thus: Acute drug treatment with 13C6-glucose tracing (GCMS, LC-MS/MS). It is filed as cell-based. The following applies: LC-MS/MS, greater panel of metabolites.
In another experiment the test system is Carney cells. The description is as above. It is filed as cell-based. The following applies: acute treatment; for serine labeling: dose response.
In another experiment the target is T2, MDH1 (Homo sapiens, UniProt P40925).
T2 construct: purchased Sigma SRP6103
T2 sequence (P40925 1-334): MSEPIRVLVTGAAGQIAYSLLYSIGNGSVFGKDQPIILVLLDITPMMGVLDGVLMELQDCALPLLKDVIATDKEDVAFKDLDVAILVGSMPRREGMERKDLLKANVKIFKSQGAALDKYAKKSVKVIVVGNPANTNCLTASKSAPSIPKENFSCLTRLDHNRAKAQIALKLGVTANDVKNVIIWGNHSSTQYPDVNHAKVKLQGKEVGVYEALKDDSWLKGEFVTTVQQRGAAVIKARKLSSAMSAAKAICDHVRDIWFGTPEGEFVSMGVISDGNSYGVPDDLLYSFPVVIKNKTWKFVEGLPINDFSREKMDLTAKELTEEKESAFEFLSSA
The experiment can be described thus: MDH1 assay (kit, recombinant enzyme). It is filed as biochemical. As to conditions: at concentrations consistent with the PHGDH IC50. How it is done: as §1

A further experiment concerns LDH. The experiment can be described thus: Cross-linking assay, LDH. The following applies: BS3 cross-linking, SDS-PAGE.
In experiment [3] the target is T1, PHGDH. The experiment can be described thus: PHGDH assay (NADH fluorescence, PSAT1 coupled). It is filed as biochemical. Also noted: His6; made in house; host or cells: BL21 E. coli.
Method: (§2) PHGDH activity was measured in 96-well plates by monitoring NADH fluorescence (Ex340 nm/Em460 nm) over time. PSAT1 was included to prevent product inhibition of PHGDH.
Experiment [4] concerns MDA-MB-468 (468) breast cancer cells. The experiment can be described thus: LC-MS/MS metabolite profiling versus PHGDH knockdown. It is filed as cell-based. The following applies: 30 μM, 24 hours.
Method: MDA-MB-468 (468) breast cancer cells (PHGDH amplified) were grown in DMEM supplemented with FBS (10%), penicillin, and streptomycin. 468 cells stably expressing PHGDH knockdown constructs were generated by infecting 468 cells with lentivirus harboring pLKO.1 shRNAs against PHGDH (sh29) or (sh31) and a nontargeting control (shGFP). Following infections, cells were selected for 2 days using puromycin prior to seeding in 10 cm plates for the experiment. PHGDH knockdown cells (sh29 and sh31) were seeded in 10 cm plates, each in triplicate, and shGFP cells in sextuplet. […] After 24 hours of treatment, the media were aspirated, and cells were washed with cold PBS prior to flash freezing. Subsequently, polar metabolites were extracted with 80% methanol for 30 minutes, scraped, transferred to Eppendorf tubes, centrifuged to remove insoluble matter, and dried. […] Briefly, samples were injected and analyzed using a 5500 QTRAP triple quadrupole mass spectrometer (AB/Sciex) coupled to a Prominence UFLC system (Shimadzu). Approximately 250 metabolites were analyzed by single reaction monitoring (SRM).
Experiment [5] has as its system MDA-MB-468, MDA-MB-436, HCC70, and Hs578T. The experiment can be described thus: cells. As to conditions: read-out: growth inhibition.
Method: (§3) Cells were plated at a low density in 96 or 24 well plates in serine containing media. The following day, media was aspirated, cells were washed with PBS, and fresh serine replete or deplete media containing drug (15 μM, 30 μM) or vehicle (DMSO) was added. Cells were grown for 3 to 5 days, with drug and media changed daily before assaying relative cell numbers.
In experiment [6] the target is truncated form of PHGDH, which lacks the C-terminal domain (Homo sapiens, UniProt O43175).
Method: as §2
For the next experiment, the system named is MDA-MB-468 cells. The experiment can be described thus: Proliferation assay, MDA-MB-468. It is filed as cell-based.

Method for Carney cells: Carney cells acclimated to growth in MEM (Corning) were plated at 9×10^5 cells per 6 cm dish the night before. The following morning, media was replaced with fresh media containing (1) (1 μM, 15 μM, 30 μM) or vehicle control (DMSO) for 1h. Media was then aspirated, cells were washed with PBS, and fresh glucose free MEM (Gibco) supplemented with ^13C6-glucose (3 g/L, Cambridge Isotopes) and 10% dialyzed FBS containing drug or DMSO was added. After 2h, cells were quickly washed with cold PBS on ice and flash frozen. Polar metabolites were extracted as in the GCMS methods.
Polar metabolites were extracted with 2 ml MeOH/H2O (4:1) for 30 min on dry ice, scraped, transferred to 2 ml tubes, centrifuged (30 min, 15000 rpm), and the supernatants dried under vacuum. Samples were derivatized as previously described and analyzed on an Agilent 6890 GC instrument. Metabolite quantification was inferred from a standard curve and fractional enrichment of ^13C in metabolites was corrected for the natural abundance of ^13C and ^15N.
Polar metabolites were extracted and dried as in the GCMS method. Samples were resuspended in 15 μl of HPLC grade water. 5 μl of each sample was injected and analyzed using a 5500 QTRAP triple quadrupole mass spectrometer (AB/Sciex) coupled to a Prominence UFLC system (Shimadzu) as reported previously.
Newly synthesized serine has a mass-shift of 3 (M+3) due to the incorporation of glucose-derived ^13C via 3-PG. The kinetics of serine labeling were investigated.
Method for MCF7 cells: as §3
Method for MDA-MB-468 cells: as §3

In general, inhibition refers to the share of the control response that was lost under treatment. With `CCOC(=O)c1sc(NC(=O)c2ccco2)c(SC#N)c1C` [Compound (1), Ethyl 5-(furan-2-carboxamido)-3-methyl-4-thiocyanatothiophene-2-carboxylate], at PHGDH [1], the PHGDH oligomerization state entry is listed as “shifted the PHGDH equilibrium from the tetrameric to the dimeric state”. Also, the “effect on lactate dehydrogenase (LDH)” value in experiment [2] is recorded as “no effect; also recorded: does not inhibit”. The “sensitivity of proliferation to drug” value is “partially sensitive” with MCF7 cells (serine deplete conditions) and “insensitive” with MCF7 cells (serine replete conditions). For the same compound, in the experiment on cells, the glycolytic metabolites entry is given as “unperturbed”. The serine labeling result with Carney cells (15 μM) is on record as “trended towards a decrease”; in the experiment on Carney cells (30 μM), “significantly decreased”. The “perturbations in labeling (3-PG, pyruvate, lactate versus serine)” value in the experiment on Carney cells (GCMS) is on record as “specific to serine”. Also, the “effect on MDH1” value on MDH1 is reported as “no effect”. The LDH oligomerization state result with LDH is reported as “No such effect”. The “time dependence of onset of inhibition” value at PHGDH [3] (increasing pre-incubation time of drug and PHGDH) is “progressively more potent”. In addition, at PHGDH [3] (with respect to both substrates, decreasing Vmax), the mode of inhibition result is given as “non-competitive”. Further, the “purine metabolites (AMP, dAMP, IMP, GDP, dGDP, GMP levels)” value in [4] is “down regulated”. Further, the “decrease of intracellular serine levels” value in experiment [4] (normalized to control treatment) worked out at 50%. In experiment [5], the inhibition at 30 µM was 35 to 60%. Also, the “inhibition of truncated PHGDH” value in experiment [6] was “still inhibited”.

As to `Cc1c(C(=O)O)sc(NC(=O)c2ccco2)c1SC#N` [carboxylic acid derivative, 5-(furan-2-carboxamido)-3-methyl-4-thiocyanatothiophene-2-carboxylic Acid], in the experiment with MDA-MB-468 cells, the effect on proliferation entry was “not effective”. Besides, the “potency against and selectivity for PHGDH, acid derivative versus parent” value at PHGDH [3] (in vitro) is on record as “equally potent”.
